The values below come from US20250034107A1, “SUBSTITUTED 2-(2-(2,6-DIOXOPIPERIDIN-3-YL)-1- OXOISOINDOLIN-5-YL) ACETAMIDE ANALOGS AS MODULATORS OF GSPT1 AND/OR IKZF1 PROTEIN” (St. Jude Children's Research Hospital, Inc., priority 2021, published 2025).

Each structure is given as a SMILES string. Bounds are passed on as bounds.

One test deals with MV-4-11 cells. The experiment in a line: Cell proliferation assay (Cell Titer-Glo), MV-4-11 cells. The conditions noted are these: Homo sapiens, MV4-11; MV411 cells, 72 h incubation. The class given is cell-based. How it is done: (§1) MV-4-11 cell line was purchased from the American Type Culture Collection (ATCC, Manassas, VA) and maintained in Iscove's Modified Dulbecco's medium (IMDM; (ATCC) supplemented with 10% FBS. MHHCALL4 cell line was purchased from the German Collection of Microorganisms and Cell Cultures GmbH (DSMZ) and maintained in RPMI 1640 medium supplemented with 10% fetal bovine serum (HyClone), penicillin/streptomycin (100 U/mL), and glutamine ([…]) at 37° C. in a humidified 5% C02 incubator. Exponentially growing MV-4-11 cells were plated at 1250 cells per well and MHH-CALL-4 cells were plated at 7,500 cells per well in Corning 8804BC white 384-well assay plates and incubated overnight at 37° C. in a humidified 5% CO2 incubator. Compounds were transferred to the assay plate from a dose-response plate using a Pintool on a Biomek FXP Laboratory Automation Workstation (Beckman Coulter). Cytotoxicity was determined following 72 hours of incubation using Promega Cell Titer Glo reagent according to the manufacturer's recommendation. Luminescence was measured on an Envision plate reader (Perkin-Elmer).
(§2) Compounds were screened in human cancer cell lines and each cell line was cultured in the complete medium recommended by the vendor and seeded in Corning 8804BC white 384-well assay plates at density of 1250 cells per well for MV-4-11 cells and of 7,500 cells per well for MHH-CALL-4 cells. After overnight incubation at 37° C. in a humidified 5% CO2 incubator, cells were treated with compounds in dose-response format using a Pintool on a Biomek FXP Laboratory Automation Workstation (Beckman Coulter). After 72 h incubation, cell proliferation was assessed using Cell Titer-Gbo (CTG) luminescent cell viability assay (Promega) according to the manufacturer's instruction. Luminescence signal was measured using an Envision plate reader (Perkin-Elmer).

Another test concerns MHHCALL4 cells. Description: Cell proliferation assay (Cell Titer-Glo), MHH-CALL-4 cells. The format is cell-based, human. The conditions noted are these: 72 h incubation; for EC50: Homo sapiens. How it is done:
as §1, §2

The next test concerns the target T1, hGSPT1 (Homo sapiens, UniProt P15170+Q96SW2).
T1 construct: host or cells: HEK293
Description: hGSPT1 HiBiT assay (level of GSPT1 HiBiT tag protein, Nano-Glo HiBiT Lytic Detection). The conditions noted are these: HEK293 hGSPT1 HiBiT tag cells, 4 hrs incubation. The class given is cell-based. The protocol:
HEK293 hGSPT1 HiBiT tag cells were seeded in white 384-well assay plates at density of 800 cells per well in triplicates. After overnight incubation, cells were treated with compounds in dose-response format using a Pintool on a Biomek FXP Laboratory Automation Workstation (Beckman Coulter). After 4 hrs incubation, the level of GSPT1 HiBiT tag protein was evaluated using Nano-Glo® HiBiT Lytic Detection System (Promega) according to the manufacturer's instruction. Luminescence signal was measured using an Envision plate reader (Perkin-Elmer).

The next test has as its system neosubstrate degradation. The conditions noted are these: more potent in cells than lenalidomide; see Ref. 13; cited from earlier work.

T1 sequence (P15170 whole entry): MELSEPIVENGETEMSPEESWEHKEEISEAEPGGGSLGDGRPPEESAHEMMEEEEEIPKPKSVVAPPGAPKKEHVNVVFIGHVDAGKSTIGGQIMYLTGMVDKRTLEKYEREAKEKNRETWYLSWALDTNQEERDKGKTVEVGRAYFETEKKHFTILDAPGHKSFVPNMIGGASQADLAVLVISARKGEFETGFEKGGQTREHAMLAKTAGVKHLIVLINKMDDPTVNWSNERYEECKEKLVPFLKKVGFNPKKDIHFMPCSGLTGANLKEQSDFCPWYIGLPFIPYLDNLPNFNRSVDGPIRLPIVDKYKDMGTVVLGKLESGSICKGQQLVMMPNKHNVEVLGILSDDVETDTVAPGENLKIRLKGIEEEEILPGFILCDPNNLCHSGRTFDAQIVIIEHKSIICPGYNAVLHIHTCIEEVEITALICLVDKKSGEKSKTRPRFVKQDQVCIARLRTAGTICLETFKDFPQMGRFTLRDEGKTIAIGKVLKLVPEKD
T1 sequence (Q96SW2 whole entry): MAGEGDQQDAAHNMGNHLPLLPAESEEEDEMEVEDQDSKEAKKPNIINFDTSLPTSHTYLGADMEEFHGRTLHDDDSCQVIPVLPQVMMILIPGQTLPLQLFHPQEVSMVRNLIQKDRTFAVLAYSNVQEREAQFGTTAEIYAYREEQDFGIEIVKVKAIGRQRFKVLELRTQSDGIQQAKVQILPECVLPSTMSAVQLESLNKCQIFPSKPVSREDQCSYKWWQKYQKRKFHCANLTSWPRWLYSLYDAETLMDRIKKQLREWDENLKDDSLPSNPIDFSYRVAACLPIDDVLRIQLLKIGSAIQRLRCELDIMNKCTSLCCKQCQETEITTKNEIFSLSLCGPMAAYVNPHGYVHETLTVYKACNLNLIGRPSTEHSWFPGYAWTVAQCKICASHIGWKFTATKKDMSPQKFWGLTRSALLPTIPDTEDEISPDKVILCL
T1 sequence (Q16531 whole entry partner): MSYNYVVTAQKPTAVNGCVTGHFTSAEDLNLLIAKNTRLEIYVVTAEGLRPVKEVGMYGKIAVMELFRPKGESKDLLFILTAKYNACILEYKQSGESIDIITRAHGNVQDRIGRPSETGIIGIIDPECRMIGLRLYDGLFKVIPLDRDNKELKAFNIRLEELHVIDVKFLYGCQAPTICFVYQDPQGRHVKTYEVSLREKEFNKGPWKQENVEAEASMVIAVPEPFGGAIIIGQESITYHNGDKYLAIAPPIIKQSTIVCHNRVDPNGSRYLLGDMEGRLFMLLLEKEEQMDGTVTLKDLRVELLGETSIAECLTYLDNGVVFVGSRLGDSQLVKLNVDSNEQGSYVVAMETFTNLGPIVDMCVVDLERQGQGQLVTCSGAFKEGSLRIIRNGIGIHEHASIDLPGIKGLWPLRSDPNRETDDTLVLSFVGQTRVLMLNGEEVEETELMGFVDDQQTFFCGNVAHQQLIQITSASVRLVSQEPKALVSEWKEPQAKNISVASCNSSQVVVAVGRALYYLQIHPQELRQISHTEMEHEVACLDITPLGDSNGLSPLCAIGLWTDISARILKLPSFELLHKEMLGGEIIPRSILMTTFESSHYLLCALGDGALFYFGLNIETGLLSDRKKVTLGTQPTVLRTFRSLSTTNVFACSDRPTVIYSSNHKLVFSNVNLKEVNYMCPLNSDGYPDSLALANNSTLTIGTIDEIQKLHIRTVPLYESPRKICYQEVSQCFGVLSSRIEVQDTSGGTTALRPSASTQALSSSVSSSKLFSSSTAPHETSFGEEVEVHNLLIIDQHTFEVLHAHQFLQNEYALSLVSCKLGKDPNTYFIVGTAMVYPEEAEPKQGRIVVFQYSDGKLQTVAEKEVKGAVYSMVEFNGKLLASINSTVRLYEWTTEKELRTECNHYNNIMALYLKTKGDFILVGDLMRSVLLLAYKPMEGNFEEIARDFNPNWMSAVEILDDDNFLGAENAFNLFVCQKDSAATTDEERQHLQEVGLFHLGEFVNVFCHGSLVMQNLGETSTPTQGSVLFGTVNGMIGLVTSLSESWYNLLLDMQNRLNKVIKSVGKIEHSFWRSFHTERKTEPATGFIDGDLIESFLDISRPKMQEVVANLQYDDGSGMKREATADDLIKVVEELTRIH

As for `O=C(Cc1ccc2c(c1)CN(C1CCC(=O)NC1=O)C2=O)NCC1CC1` (stereo not drawn) [Compound 7], the EC50 was more than 8200 nM in the test on MV-4-11 cells and more than 10100 nM in the test on MHHCALL4 cells.
At hGSPT1, `O=C1CCC(N2Cc3cc(CC(=O)Nc4ccccc4)ccc3C2=O)C(=O)N1` (stereo not drawn) [Compound 17] gave a DC50 of more than 8100 nM. Further, the EC50 in the test with MV-4-11 cells worked out at 744 nM; with MHHCALL4 cells, 4 nM.
With `O=C1CCC(N2Cc3cc(CC(=O)Nc4cccc(Cl)c4)ccc3C2=O)C(=O)N1` (stereo not drawn) [Compound 20], the DC50 at hGSPT1 is less than 1 nM. Besides, the results for the EC50 with MV-4-11 cells and in the test on MHHCALL4 cells were 5 nM and less than 1 nM, respectively.
At hGSPT1, `COc1ccc(NC(=O)Cc2ccc3c(c2)CN(C2CCC(=O)NC2=O)C3=O)cc1` (stereo not drawn) [Compound 13] displayed a DC50 of less than 1 nM. Moreover, the EC50 in the test on MV-4-11 cells and in the test with MHHCALL4 cells was less than 1 nM throughout.
On to `O=C1CC[C@H](N2Cc3c(OCc4ccc(CN5CCOCC5)cc4)cccc3C2=O)C(=O)N1` [CC-220], for which the “potency in cells relative to lenalidomide” value in the test on neosubstrate degradation was 10 fold.
In turn, `O=C(Cc1ccc2c(c1)CN(C1CCC(=O)NC1=O)C2=O)NCc1ccccc1` (stereo not drawn) [Compound 1] gave a DC50 at hGSPT1 of less than 1 nM. Besides, the EC50 in the test on MV-4-11 cells and in the test on MHHCALL4 cells was less than 1 nM each time.
On hGSPT1, `O=C1CCC(N2Cc3cc(CC(=O)Nc4cccc(F)c4)ccc3C2=O)C(=O)N1` (stereo not drawn) [Compound 21] had a DC50 of more than 3110 nM. For the same molecule, the EC50 is more than 4500 nM with MV-4-11 cells and less than 1 nM in the test with MHHCALL4 cells.
For `O=C(Cc1ccc2c(c1)CN(C1CCC(=O)NC1=O)C2=O)NCc1ccc(F)cc1` (stereo not drawn) [Compound 9], on hGSPT1, the DC50 was less than 1 nM. Besides, the EC50 was 3 nM in the test with MV-4-11 cells and less than 1 nM in the test with MHHCALL4 cells.
Consider `CCN(C(=O)Cc1ccc2c(c1)CN(C1CCC(=O)NC1=O)C2=O)c1ccccc1` (stereo not drawn) [Compound 3], for which the EC50 was more than 8700 nM in the test on MV-4-11 cells and more than 10700 nM in the test on MHHCALL4 cells.
At hGSPT1, `O=C1CCC(N2Cc3cc(CC(=O)N4CCOCC4)ccc3C2=O)C(=O)N1` (stereo not drawn) [Compound 14] gave a DC50 of more than 2700 nM. Also, the results for the EC50 in the test with MV-4-11 cells and in the test on MHHCALL4 cells were more than 2200 nM and 21 nM, respectively.
Consider `O=C1CCC(N2Cc3cc(CC(=O)N4CCCCC4)ccc3C2=O)C(=O)N1` (stereo not drawn) [Compound 15], for which the figures for the EC50 in the test on MV-4-11 cells and in the test on MHHCALL4 cells were more than 8700 nM and more than 10700 nM, respectively.
The molecule `O=C(Cc1ccc2c(c1)CN(C1CCC(=O)NC1=O)C2=O)NCc1ccc(Cl)cc1` (stereo not drawn) [Compound 16] had a DC50 on hGSPT1 of less than 1 nM. In the test on MHHCALL4 cells, this molecule came in with an EC50 of less than 1 nM.
At hGSPT1, `O=C(Cc1ccc2c(c1)CN(C1CCC(=O)NC1=O)C2=O)NCCc1ccccc1` (stereo not drawn) [Compound 11] yielded a DC50 of less than 1 nM. In the test on MHHCALL4 cells, the EC50 was less than 1 nM.
As to `O=C1CCC(N2Cc3cc(CC(=O)Nc4ccc(N5CCCCC5)cc4)ccc3C2=O)C(=O)N1` (stereo not drawn) [Compound 23], on hGSPT1, the DC50 is less than 1 nM. Besides, the figures for the EC50 with MV-4-11 cells and in the test on MHHCALL4 cells were 2 nM and less than 1 nM, respectively.
Turning to `Cc1ccccc1NC(=O)Cc1ccc2c(c1)CN(C1CCC(=O)NC1=O)C2=O` (stereo not drawn) [Compound 18], the DC50 at hGSPT1 is more than 5970 nM. In addition, the figures for the EC50 in the test on MV-4-11 cells and with MHHCALL4 cells were more than 4900 nM and 2 nM, respectively.
With `COCCNC(=O)Cc1ccc2c(c1)CN(C1CCC(=O)NC1=O)C2=O` (stereo not drawn) [Compound 4], the EC50 is more than 6700 nM in the test with MV-4-11 cells and more than 8200 nM in the test with MHHCALL4 cells.
In the case of `O=C(Cc1ccc2c(c1)CN(C1CCC(=O)NC1=O)C2=O)NCc1cccc2ccccc12` (stereo not drawn) [Compound 12], the DC50 on hGSPT1 is less than 1 nM. Moreover, the EC50 is 5 nM in the test on MV-4-11 cells and less than 1 nM in the test with MHHCALL4 cells.
Turning to `COc1cccc(NC(=O)Cc2ccc3c(c2)CN(C2CCC(=O)NC2=O)C3=O)c1` (stereo not drawn) [Compound 19], the EC50 was 5 nM in the test with MV-4-11 cells and less than 1 nM in the test with MHHCALL4 cells.
Turning to `Cc1ccc(CNC(=O)Cc2ccc3c(c2)CN(C2CCC(=O)NC2=O)C3=O)cc1` (stereo not drawn) [Compound 8], at hGSPT1, the DC50 was less than 1 nM. Further, the EC50 with MV-4-11 cells and in the test on MHHCALL4 cells was less than 1 nM in each case.
Turning to `O=C1CCC(N2Cc3cc(CC(=O)Nc4cccc(OCc5ccccc5)c4)ccc3C2=O)C(=O)N1` (stereo not drawn) [Compound 22], the DC50 at hGSPT1 is less than 1 nM. In addition, the EC50 in the test with MV-4-11 cells and in the test with MHHCALL4 cells was less than 1 nM each time.
Regarding `O=C1CCC(N2Cc3cc(CC(=O)NC4CCCCC4)ccc3C2=O)C(=O)N1` (stereo not drawn) [Compound 2], the DC50 at hGSPT1 was more than 7100 nM. In addition, in the test on MV-4-11 cells, the EC50 is more than 5800 nM. The “MHHCALL4 Cell Proliferation Assay, result in words” value with MHHCALL4 cells (printed in place of an EC50) is recorded as “cytostatic at 10 nM”.
The molecule `O=C(Cc1ccc2c(c1)CN(C1CCC(=O)NC1=O)C2=O)NCc1cccc(C(F)(F)F)c1` (stereo not drawn) [Compound 10] registered a DC50 on hGSPT1 of less than 1 nM. In addition, the EC50 with MV-4-11 cells and with MHHCALL4 cells was less than 1 nM each time.
Take `CCN(CC)C(=O)Cc1ccc2c(c1)CN(C1CCC(=O)NC1=O)C2=O` (stereo not drawn) [Compound 5]: the EC50 in the test on MV-4-11 cells was more than 1730 nM.
With `CC(C)NC(=O)Cc1ccc2c(c1)CN(C1CCC(=O)NC1=O)C2=O` (stereo not drawn) [Compound 6], the results for the EC50 in the test with MV-4-11 cells and in the test with MHHCALL4 cells were more than 6900 nM and more than 8500 nM, respectively.
